Assay results from patent publication US9856212B1, “Biphenyl compounds and applications thereof” (Shenyang Sinochem Agrochemicals R&D Co., Ltd., priority 2017, dated 2018).

Columns and labels:
Type in all cases: in vivo
[1] = system: adult spider mites (Tetranychuscinnabarinus); experiment: Test against adult spider mite, greenhouse spray on bean leaves; conditions: after 72 h
Procedure: The adult spider mites (Tetranychuscinnabarinus) were put into two true leaves of bean plants. After the number of mites were investigated, the solution of certain concentrations of test compounds was sprayed by using a sprinkler. Three replicates were set for each treatment. Then the leaves were maintained in standard observation room. After 72 h the survival mites in each leaf were observed, and mortality of the mites was determined.

[2] = system: deutonymph of spider mite (Tetranychuscinnabarinus); experiment: Test against deutonymph of spider mite, greenhouse spray; conditions: after 72 h
Procedure: Ten healthy female adult spider mites (Tetranychuscinnabarinus) were put into two true leaves of bean plants. The adult spider mites were removed after 24 h and the eggs were to be continued incubating. After ten days, the number of deutonymph were investigated and recorded. The solution of certain concentrations of test compounds was sprayed by using a sprinkler. Three replicates were set for each treatment. Then the deutonymph of spider mites were maintained in standard observation room. After 72 h, the survival mites in each leaf were observed, and mortality of the mites was determined.

[3] = system: egg of spider mite (Tetranychuscinnabarinus); experiment: Test against egg of spider mite, greenhouse spray; conditions: eggs, 5 days
Procedure: Two true leaves of bean plants were taken and one true leaf was removed. Then ten healthy female adult spider mites were put into the true leaf. The adult spider mites were removed after 24 h and the eggs were investigated. The solution of certain concentrations of test compounds was sprayed by using a sprinkler. Three replicates were set for each treatment. The untreated eggs were all incubated after 5 days. The unincubation of treated eggs in leaf was observed, and incubation inhibition rate of the eggs was determined.

spider mites = experiment: Test of systemic activity against spider mite through root absorption; conditions: root absorption 24 h, mites on bean leaves, after 72 h
Procedure: The high acaricidal compound 1 were dissolved in acetone, and then diluted with 0.1% aqueous solution of Tween 80 to form test solution in different concentration. Three replicates were set for each treatment. Water is blank control. The 10 ml compound 1 solution was added into the tube. Two true leaves bean plants were taken and the soil in the root was removed. The bean plant was dipped into the test solution in different concentration. After absorbing 24 h, 30 to 50 spider mites were put onto the true leaves. Then the bean plants were maintained in observation room at 25±1° C. After 72 h, the death and survival mites in each leaf was observed, the mortality of the mites and systemic activity was determined.

[4] = system: citrus red mite (Panonychuscitri); experiment: Field trial against citrus red mite (Jiangxi, China); conditions: orange orchard
Procedure: The trial was carried out in a 2-year-old Shatang orange orchard in Ganzhou city Jiangxi province, trifoliate orange trees were selected as stocks, the intervals between two plants was 1.50×2.50 m, the average height was 1.45 m and the crown width was 1.30 m. Two trees were selected in each plot, with random arrangement and 4 replications. Compound 1 (10% SC) was set at three different doses (100 mg/L, 50 mg/L and 25 mg/L), spirodiclofen (29% SC) was set at one dose (50 mg/L), and pyridaben (20% EC) was set at one dose (100 mg/L). MatabiSupergreen 16 Knapsack Sprayer 16 Liter was used to spray evenly with 2 L of spraying volume for each plant. The plants were treated once in May at that time, adults, nymphs, eggs of citrus red mite all existed, with adults/eggs=1/1.2. During the day the plants were treated, and the weather was good with the average temperature at 24° C. The first three days after treatment were all clear days. The number of mites was investigated before treatment and on the 1st, 3rd, 7th, 14th, 22nd and 28th day after treatment respectively. Two trees of each plot were investigated according to the five directions of the tree crown (east, south, west, north and central), 5 leaves in each direction were investigated to calculate the number of living mites, with 50 leaves each plot. The decline rate of mite population and corrected efficacy were calculated according to formulas below: The decline rate of mite population (%)=[(the average number of mite on each leaf before treatment−the average number of mite on each leaf after treatment)/the average number of mite on each leaf before treatment]×100. Corrected efficacy (%)=[(the decline rate of mite population in treated area−the decline rate of mite population in untreated area)/(100−the decline rate of mite population in untreated area)]×100.

[5] = 50 mg/L, the 1st day after treatment
[6] = 50 mg/L, the 3rd day after treatment
[7] = 50 mg/L, the 7th day after treatment
[8] = 50 mg/L, the 14th day after treatment
[9] = 50 mg/L, the 22nd day after treatment
[10] = 50 mg/L, the 28th day after treatment
[11] = 100 mg/L, the 1st day after treatment
[12] = 100 mg/L, the 3rd day after treatment
[13] = 100 mg/L, the 7th day after treatment
[14] = 100 mg/L, the 14th day after treatment
[15] = 100 mg/L, the 22nd day after treatment
[16] = 100 mg/L, the 28th day after treatment

Cc1cc(F)c(-c2cc(SCC(F)(F)F)c(C)cc2F)cc1SCC(F)(F)F [Compound 1]
Mortality (%) ([1]; 5 mg/L): 100% | Mortality (%) ([1]; 100 mg/L): 100% | Mortality (%) ([2]; 0.25 mg/L): 64% | Mortality (%) ([2]; 0.5 mg/L): 97% | Mortality (%) ([2]; 1 mg/L): 100% | Incubation inhibition rate (%) ([3]; 0.25 mg/L): 18% | Incubation inhibition rate (%) ([3]; 1 mg/L): 34% | Incubation inhibition rate (%) ([3]; 5 mg/L): 100% | Mortality (%) (spider mites; 50 mg/L): 80% | Mortality (%) (spider mites; 200 mg/L): 88% | Corrected efficacy (%) ([4]; 25 mg/L, the 1st day after treatment): 9% | Corrected efficacy (%) ([4]; 25 mg/L, the 3rd day after treatment): 53% | Corrected efficacy (%) ([4]; 25 mg/L, the 7th day after treatment): 74% | Corrected efficacy (%) ([4]; 25 mg/L, the 14th day after treatment): 77% | Corrected efficacy (%) ([4]; 25 mg/L, the 22nd day after treatment): 75% | Corrected efficacy (%) ([4]; 25 mg/L, the 28th day after treatment): 73% | Corrected efficacy (%) [4, 5]: 18% | Corrected efficacy (%) [4, 6]: 87% | Corrected efficacy (%) [4, 7]: 92% | Corrected efficacy (%) [4, 8]: 91% | Corrected efficacy (%) [4, 9]: 92% | Corrected efficacy (%) [4, 10]: 92% | Corrected efficacy (%) [4, 11]: 25% | Corrected efficacy (%) [4, 12]: 89% | Corrected efficacy (%) [4, 13]: 97% | Corrected efficacy (%) [4, 14]: 99% | Corrected efficacy (%) [4, 15]: 99% | Corrected efficacy (%) [4, 16]: 98%

CCC(C)(C)C(=O)OC1=C(c2ccc(Cl)cc2Cl)C(=O)OC12CCCCC2 [spirodiclofen, reference compound]
Incubation inhibition rate (%) ([3]; 0.25 mg/L): 13% | Incubation inhibition rate (%) ([3]; 1 mg/L): 37% | Incubation inhibition rate (%) ([3]; 5 mg/L): 100% | Corrected efficacy (%) [4, 5]: 20% | Corrected efficacy (%) [4, 6]: 48% | Corrected efficacy (%) [4, 7]: 63% | Corrected efficacy (%) [4, 8]: 80% | Corrected efficacy (%) [4, 9]: 71% | Corrected efficacy (%) [4, 10]: 70%

Cc1cc(F)c(-c2cc(SCC(F)F)c(C)cc2F)cc1SCC(F)F [Compound 62]
Mortality (%) ([1]; 100 mg/L): 100%

Cc1cc(F)c(-c2cc([S+]([O-])CC(F)(F)F)c(C)cc2F)cc1SCC(F)(F)F (centres unmarked) [Compound 2]
Mortality (%) ([1]; 100 mg/L): 100%

CC(C)(C)c1ccc(CSc2cnn(C(C)(C)C)c(=O)c2Cl)cc1 [pyridaben, reference compound]
Mortality (%) ([2]; 0.25 mg/L): 25% | Mortality (%) ([2]; 0.5 mg/L): 60% | Mortality (%) ([2]; 1 mg/L): 84% | Corrected efficacy (%) [4, 11]: 0% | Corrected efficacy (%) [4, 12]: 65% | Corrected efficacy (%) [4, 13]: 90% | Corrected efficacy (%) [4, 14]: 93% | Corrected efficacy (%) [4, 15]: 92% | Corrected efficacy (%) [4, 16]: 95%

Cc1cc(F)c(-c2cc([S+]([O-])CC(F)F)c(C)cc2F)cc1SCC(F)F (centres unmarked) [Compound 63]
Mortality (%) ([1]; 100 mg/L): 100%

Cc1cc(F)c(-c2cc([S+]([O-])CC(F)(F)F)c(C)cc2F)cc1[S+]([O-])CC(F)(F)F (centres unmarked) [Compound 3]
Mortality (%) ([1]; 100 mg/L): 100%
